Tests used:
IFN-γ [1] = assay: IFN-γ Levels in Chlamydia Patients (ProCon IFN-γ assay, 492 nm); assay type: in vivo, human; conditions: urogenital chlamydiosis patients, First Group: claritomycin, doxycyclin and ofloxacin in succession; after treatment
Experimental: Among other cytokine levels, levels of IFN-γ were determined for three groups, each including fifteen (15) individuals, and compared with IFN-γ levels of the aforementioned group of fifteen (15) “normal” blood donors. The individuals of a first group were treated with 500 mg of claritomycin twice daily for ten (10) to fourteen (14) days, 100 mg of doxycyclin once daily for ten (10) days, and 200 mg of ofloxacin twice daily for ten (10) days, with the drugs having been administered in succession. The individuals of the second group received 500 mg of claritomycin twice daily for ten (10) to fourteen (14) days and one capsule of TRANSFER FACTOR PLUS three times each day for ten (10) days, with treatment with the claritomycin and TRANSFER FACTOR PLUS beginning on the same day. In the third group, each individual was treated with 500 mg of claritomycin twice daily for ten (10) to fourteen (14) days and one capsule of TRANSFER FACTOR thrice daily for ten (10) days, with administration of the claritomycin and TRANSFER FACTOR PLUS having begun on the same day. […] The following TABLE 5 lists the collective measures of IFN-γ in all three groups, as determined by use of the ProCon IFN-γ assay available from Protein Contour and photometrically measured at a wavelength of 492 nm. […]

IFN-γ [2] = assay: IFN-γ Levels in Chronic Opisthorchiasis Patients (ProCon IFN-γ assay, 492 nm); assay type: in vivo, human; conditions: Second Group: praziquantel only, two weeks after treatment
Excerpt: Forty-five (45) individuals with chronic opisthorchiasis were split into two groups: a first group including twenty-five (25) individuals and a second group including twenty (20) individuals. The individuals of both groups received conventional praziquantel treatment, an anti-parasitic, or antihelminthic, drug which is used in the treatment of opisthorchiasis and is available under the trade name BILTHRICIDE™ from Bayer AG of Leverkusen, Germany. In addition to praziquantel, two capsules of TRANSFER FACTOR PLUS were administered to the individuals of the first group following praziquantel treatment, three times daily for seven days. The individuals of the second group were only treated with praziquantel.
Levels of various cytokines, including γ-interferon (IFN-γ), antibodies, and immune complexes were determined, by known processes, for each the individuals prior to therapy and two weeks following TRANSFER FACTOR PLUS therapy in the individuals of the […] was discontinued. The following TABLE 4 lists the collective measures of IFN-γ in both groups, as determined by use of the ProCon IFN-γ assay available from Protein Contour of St. Petersburg, Russia, and photometrically measured at a wavelength of 492 nm. TABLE 4 also includes a collective measure of the IFN-γ levels of fifteen (15) “normal” blood donors.

`CC[C@H]1OC(=O)[C@H](C)[C@@H](O[C@H]2C[C@@](C)(OC)[C@@H](O)[C@H](C)O2)[C@H](C)[C@@H](O[C@@H]2O[C@H](C)C[C@H](N(C)C)[C@H]2O)[C@](C)(OC)C[C@@H](C)C(=O)[C@H](C)[C@@H](O)[C@]1(C)O` [claritomycin] gave an IFN-γ level (IFN-γ [1]) of 31.4 ± 6.1.

`O=C(C1CCCCC1)N1CC(=O)N2CCc3ccccc3C2C1` (centres unmarked) [praziquantel] gave an IFN-γ level (IFN-γ [2]) of 51.4 ± 6.3.

— US20050233967A1, “Compositions, systems, and methods for focusing a cell-mediated immune response” (priority 2002, published 2005)
